# From US12139531B2, “Compositions and methods useful in promoting milk production” (The Regents of the University of California, priority 2019, dated 2024)
# Entries after “also recorded” stand apart in the source; their conditions may differ.
# Assays:
# [1] = test system: HC11 cells; test: RT-qPCR of milk genes (WAP, Lalba) in differentiated HC11 cells; type: cell-based, mouse
# Experimental: To determine whether the promotion of dome formation also results in higher milk production, HC11 cells were differentiated in the presence or absence of ROBO1-ECD fragments that were added to cells simultaneously with DIP media. Cells were harvested and the expression of WAP and Lalba assessed by RT-qPCR. […] WAP expression levels were not increased in cells treated with DCC-Ig4 (FIG. 7K). Next, Western blot analysis of WAP and PLIN2 was performed on cells treated with ROBO1-Ig5 and ROBO1-Ecto.
# (§1) HC11 cells were grown in RPMI 1640 media (Gibco) supplemented with 10% fetal bovine serum (BioFluid Technologies), 5 μg/mL insulin (Sigma), and 10 ng/ml epidermal growth factor (EGF; Sigma). To induce differentiation in HC11 cells, confluent plates were given fresh media (RPMI 1640 media supplemented with 5% charcoal-stripped fetal bovine serum (BioFluid Technologies), 5 μg/mL insulin, and 10 ng/ml epidermal growth factor (EGF; Sigma) for 3 days followed by 24 hours of priming in priming medium (RPMI 1640 media supplemented with 5% charcoal-stripped fetal bovine serum (BioFluid Technologies), and 5 μg/mL insulin. After priming, DIP medium (RPMI 1640 media supplemented with 5% charcoal-stripped fetal bovine serum (BioFluid Technologies), 10^−6 M dexamethasone (Sigma), 5 μg/mL insulin, and 5 μg/mL prolactin (National Hormone and Peptide program) was added with fresh media every 24 hours.
# Total RNA was harvested from cells lysed in TRIzol reagent (Invitrogen) and phase separated according to manufacturer's protocol with an additional overnight RNA precipitation stem in ethanol (Macias et al., 2011). The RNA was further purified with TURBO DNase (Ambion) treatment. Total RNA quality was analyzed by agarose gel electrophoresis and quantified with an ND-1000 spectrophotometer (NanoDrop). cDNA libraries were prepared from 1 μg of total RNA using iScript cDNA synthesis kit (BioRad). Quantitative RT-PCR was performed in triplicates using light Cycler 480 SYBR Green I Master (Roche) and quantified using BioRad CFX'Connect Real-Time System and CFX Manager software (BioRad). […]
# [2] = test system: NOTCH4; test: Cell fractionation and Western blot for HES1 and NOTCH4-ICD in HC11 cells; type: cell-based, mouse; settings: siR1+GSI, primed/differentiated HC11 cells, nuclear fraction
# Experimental: Notch receptor activation can be regulated through direct interactions with binding partners^24. […] To address this possibility, co-immunoprecipitation experiments were performed using MBA-MD-231 cells lysates, which express detectable levels of all four Notch receptors (NOTCH1-4). Endogenous ROBO1 co-immunoprecipitated with NOTCH4, but not […], NOTCH2 or NOTCH3 (FIG. 3H and data not shown). Next, the expression and subcellular localization of the NOTCH4 intracellular domain (N4-ICD) and HES1 was examined in control (Scr) and Robo1 (siR1) knockdown HC11 cells. Expression of Robo1 was inhibited in HC11 cells that were then primed for differentiation as described above. […] This effect was not observed in control Robo1 knockdown cells engineered to overexpress Robo1 (siR1+o/e) or cells treated with the γ-secretase inhibitor GSI (siR1+GSI) (FIGS. 3I-3K).
# To examine the effects of ROBO1-ECD fragments on Notch signaling, HC11 cells were treated with ROBO1-ECD fragments and Notch effector expression assessed. […] In addition, HC11 cells were treated with ROBO-Ig5 during differentiation. These cells were then fractionated and a Western blot performed to detect HES1 and NOTCH4-ICD (FIG. 8B).
# Protein lysates were prepared by directly lysing adherent cells in 1× sample buffer supplemented with 5% beta-mercaptoethanol and boiled for 5 minutes. Protein lysate was resolved by SDS-PAGE and transferred to a PVDF for 90 minutes at 400 mA or overnight at 30 mA. Primary antibodies were used at the concentration indicated in Table 1 and incubated overnight at 4° C. HRP conjugated secondary antibodies (Jackson Labs) were used at 1:3000 and incubated for 45 minutes at room temp. All proteins were detected using Clarity ECL (BioRad) using a BioRad Chemi-Doc MP Imager and quantified using ImageLab software as previously described a.
# [3] = test system: HC11 cells; test: HC11 dome assay (milk dome formation on differentiation in DIP media); type: cell-based, mouse; settings: for dome formation in response to a titration of ECD fragments: HC11 cells, increasing ECD concentration
# Experimental: To investigate ROBO1 function during alveologenesis, Robo1 gene expression was inhibited in HC11 cells (Robo1 KD). HC11 cells are a well-established, prolactin-responsive model of lactation,^19,20. Cells in which Robo1 gene expression was not inhibited are referred to as WT or Robo1+/+ herein. To measure milk production, cells were grown to confluence and then primed by treatment with epidermal growth factor (EGF, 10 ng/ml). The EGF is administered for three days in combination with charcoal-stripped fetal bovine serum, followed by one day of charcoal-stripped fetal bovine serum in the absence of EGF. These primed cells are then differentiated by treatment with dexamethasone (1 μg/ml), insulin (5 μg/ml) and prolactin (Prl, 5 μg/ml) media (DIP media) for between 3 and 5 days (FIG. 2A). Differentiation (Dif) results in the development of milk-filled domes (FIG. 2B). […] If the cells were left undifferentiated (Undif), there was little dome formation in either WT or Robo1−/− cells (FIG. 2B). Next, tissue from Robo1 knockout mice (Robo1−/−) and wild type mice (WT or Robo1+/+) mice was analyzed. Mammary glands were harvested from pregnant day 18 WT and Robo1−/− animals and alveologenesis analyzed by serially sectioning, carmine staining and then quantifying the area occupied by alveoli in sections located at top, middle and bottom portions of the tissue.
# Dome number formation in response to a titration of ROBO1 ECD fragments was quantified. […] A bovine ROBO1-Ig5 construct was also tested in this assay and, as with the rat constructs, more domes were formed in response to treatment with higher concentrations of […] (FIG. 7H).
# as §1
# [4] = test system: Notch; test: In vivo gamma secretase inhibitor treatment; number of FACS-purified alveolar progenitor cells; set-up: species or system mice; settings: 10 mg/kg GSI orally, mature virgin
# Experimental: (§2) In further work, Notch signaling was inhibited to attempt to reverse the Robo1−/− phenotype. A γ-inhibitor that has been previously employed successfully in vivo to inhibit Notch in several different organs^26-28, including the mammary gland^29, was selected. Mature virgin animals were treated for […] with 10 mg/kg of the GSI or vehicle control^29 (FIG. 4C). After the treatment, mammary glands were harvested and analyzed by FACS and qPCR. It was observed that Robo1−/− mammary glands contain a higher number of alveolar progenitor cells relative to WT controls (FIG. 4D). […] GSI treatment had no effect on the number of alveolar progenitor cells in WT animals (FIG. 4D).
# Mechanically dissociated inguinal and thoracic mammary fat pads were prepared into cell suspension for FACS as described^17. AVPs were isolated using FITC-CD14 (clone Sa14-2; BioLegend) and […] (clone 2B8; BioLegend) as described^14.
# (§3) GSI inhibitor (R04929097; MedchemExpress) was orally administer at 10 mg/kg for 5 days as described^29. Mammary glands were harvest after 5 days of GSI or vehicle treatment and prepared for single cell analysis. Purified populations were collected and processed for RNA. Purified population numbers were analyzed using FlowJo.
# [5] = test system: Notch signaling; test: In vivo gamma secretase inhibitor treatment; RT-qPCR on FACS-purified alveolar progenitor cells; set-up: species or system mice; settings: GSI-treated vs vehicle-treated
# Experimental: as §2
# Robo1−/− alveolar progenitor cells (AVPs) expressed higher levels of Hey1 and Hes1 with vehicle treatment compared to AVPs from vehicle-treated WT animals (FIG. 4E). […] Vehicle-treated Robo1−/− alveolar progenitor cells (AVPs) expressed lower levels of Elf5 than AVPs from vehicle-treated WT animals (FIG. 4E). This is consistent with the observation of lower levels of ELF5 expression in Robo1−/− compared to Robo1+/+ mammary glands (FIG. 2H), and lower Elf5 in Robo1 knockdown compared to control (Scr) HC11 cells (FIG. 3C). […] In the absence of Robo1, NOTCH4 is activated—an effect that is reversed by either pharmacological inhibition of Notch signaling (FIGS. 4E, 3E, 3F, 3I-K) or knockdown of Notch4 gene expression (FIGS. 3F,G).
# as §3
# Total RNA was harvested from cells lysed in TRIzol reagent (Invitrogen) and phase separated according to manufacturer's protocol with an additional overnight RNA precipitation stem in ethanol (Macias et al., 2011). The RNA was further purified with TURBO DNase (Ambion) treatment. Total RNA quality was analyzed by agarose gel electrophoresis and quantified with an ND-1000 spectrophotometer (NanoDrop). cDNA libraries were prepared from 1 μg of total RNA using iScript cDNA synthesis kit (BioRad). Quantitative RT-PCR was performed in triplicates using light Cycler 480 SYBR Green I Master (Roche) and quantified using BioRad CFX'Connect Real-Time System and CFX Manager software (BioRad). Results were normalized to GAPDH.
# [6] = test system: HEK-293 cells; test: Dot blot dilution assay of ROBO1-Ig5 secretion into media of transfected HEK-293 cells; type: cell-based; settings: heparin 300 ng/ml, media days two, four, six
# From the text: Three recombinant ROBO1 ECD constructs were constructed: one comprising two immunoglobulin (Ig) domains (ROBO1-Ig2), another comprising all five Ig domains (ROBO1-Ig5), and another comprising the entire extracellular domain (ROBO1-Ecto) (FIG. 6A). In other constructs, HA (hemagglutinin), Myc, and human and mouse immunoglobulin Fc were fused to the Robo1 ECDs (FIG. 6A, 5F right). Extracellular domains of Deleted in Colorectal Cancer (DCC), a structurally similar Ig superfamily member to ROBO1, comprising either two Ig (DCC-Ig2) or four Ig (DCC-Ig4) domains and tagged with HA were constructed for use as negative controls (FIG. 6A, 5F right). Expression secretion of the constructs was confirmed by overexpressing the constructs in HEK293 cells and performing Western blots on cell lysates and media (FIG. 6B). […] Robo1-Ig5 as used herein was expressed in HEK-293 cells in the absence and presence of heparin (300 ng/ml). Media were collected from these ROBO1-Ig5 overexpressing cells on days two, four and six following plasmid transfection. Dot blot dilution assays of the collected media were performed to evaluate the relative secretion of this soluble ROBO1 ECD (FIG. 6C).
molecule,measurement,setting,value
CC(C)(C(=O)NCC(F)(F)C(F)(F)F)C(=O)N[C@@H]1C(=O)Nc2ccccc2-c2ccccc21 [GSI],decreased Lalba expression in Robo1 knockdown (siR1) HC11 cells,[1]; siR1+GSI,rescued
same,decreased WAP expression in Robo1 knockdown (siR1) HC11 cells,[1]; siR1+GSI,rescued
same,higher nuclear HES1 in Robo1 knockdown cells,[2],not observed; also recorded: rescues the effect
same,higher nuclear NOTCH4 intracellular domain (N4-ICD) in Robo1 knockdown cells,[2],not observed; also recorded: rescues the effect
same,decreased dome formation in Robo1 knockdown (KD) HC11 cells,[3]; Robo1 KD HC11 cells plus GSI,rescued
same,number of alveolar progenitor cells,[4]; Robo1-/- animals,same number of alveolar progenitor cells as WT animals
same,number of alveolar progenitor cells,[4]; WT animals,no effect
same,Hes1 expression in AVPs,[5]; Robo1+/+ animals,less expression; also recorded: decreased
same,Hey1 expression in AVPs,[5]; Robo1+/+ animals,less expression; also recorded: decreased
same,Elf5 expression in AVPs,[5]; Robo1-/- animals,higher; also recorded: rescued
same,Hes1 expression in AVPs,[5]; Robo1-/- animals,lower; also recorded: rescued
same,Hey1 expression in AVPs,[5]; Robo1-/- animals,lower; also recorded: rescued
heparin,secretion of soluble ROBO1-Ig5,[6],trend of greater secretion
same,secretion of soluble ROBO1-Ig5,[6]; listed as Heparin,modestly increases
"DCC-Ig4: extracellular domain of Deleted in Colorectal Cancer comprising four Ig domains, HA tagged, negative control (protein, listed as Rattus norvegicus, HA tag, extracellular domain of Deleted in Colorectal Cancer comprising four Ig domains, HA tagged, negative control) FTSLHFVSEPSDAVTMRGGNVLLNCSAESDRGVPVIKWKKDGLILALGMDDRKQQLPNGSLLIQNILHSRHHKPDEGLYQCEASLGDSGSIISRTAKVMVAGPLRFLSQTESITAFMGDTVLLKCEVIGDPMPTIHWQKNQQDLNPIPGDSRVVVLPSGALQISRLQPGDSGVYRCSARNPASTRTGNEAEVRILSDPGLHRQLYFLQRPSNVIAIEGKDAVLECCVSGYPPPSFTWLRGEEVIQLRSKKYSLLGGSNLLISNVTDDDSGTYTCVVTYKNENISASAELTVLVPPWFLNHPSNLYAYESMDIEFECAVSGKPVPTVNWMKNGDVVIPSDYFQIVGGSNLRILGVVKSDEGFYQCVAENEAGNAQSSAQLI",WAP gene expression by RT-qPCR,"[1]; HC11 cells, ECD fragments added simultaneously with DIP media, DCC-Ig4 0.7 μM",not increased; also recorded: no change
same,dome formation in response to a titration of ECD fragments,[3],not observed
"bovine ROBO1-Ig5: bovine ROBO1-Ig5 construct (Bos taurus ROBO1-Ig5, SEQ ID NO: 2) (protein, listed as Bos taurus) MIAEPAHFYLFGLICLCSGSRLRQEDFPPRIVEHPSDLIVSKGEPATLNCKAEGRPTPTIEWYKGGERVETDKDDPRSHRMLLPSGSLFFLRIVHGRKSRPDEGVYVCVARNYLGEAVSHNASLEVAILRDDFRQNPSDVMVAVGEPAVMECQPPRGHPEPTISWKKDGSPLDDKDERITIRGGKLMITYTRKSDAGKYVCVGTNMVGERESEVAELTVLERPSFVKRPSNLAVTVDDSAEFKCEARGDPVPTVRWRKDDGELPKSRYEIRDDHTLKIRKVTAGDMGSYTCVAENMVGKAEASATLTVQVGSEPPHFVVKPRDQVVALGRTVTFQCEATGNPQPAIFWRREGSQNLLFSYQPPQSSSRFSVSQTGDLTITNVQRSDVGYYICQTLNVAGSIITKAYLEVTDVIADRPPPVIRQGPVNQTVAVDGTLVLSCVATGSPVPTILWRKDGVLVSTQDSRIKQLETGVLQIRYAKLGDTGRYTCIASTPSGEATWSAYIEVQEF",dome formation in response to a titration of ECD fragments,[3],more domes; also recorded: increasing dome formation
